In patent US20020031795A1, “Nitrocoumarins for detecting all micro-organisms” (priority 1998, published 2002) one finds Fluorescence reading data, which are given here for one compound.

This experiment concerns Listeria ivanovii (wild strain). Description: Fluorescence after 24 hours, serial dilutions in Trypticase Soy broth. In kind it is cell-based. The method, then: This experiment was performed to test 7-nitrocoumarin-3-carboxylic acid on sixteen (16) different types of microorganism, including one yeast species.
A mass of 10 mg of the indicator was dissolved in 4 ml of hot, distilled water and this solution was then added to 96 ml of Trypticase Soy broth. The resultant mixture was sterile-filtered.
All the microorganisms were grown for 24 hours in Trypticase Soy broth at 35° C. Each culture was then diluted 1,000-fold in Trypticase Soy broth and then serial 10-fold dilutions were made in more Trypticase Soy broth until the test aliquot contained no more microbial cells.
The resultant dilutions ranged from 10^−3 to 10^−13.
Fifty microliters of each dilution plus 50 μl of Trypticase Soy broth were added to wells of a microtiter plate with or without 7-nitrocoumarin-3-carboxylic acid.
The plates were read (T zero) and then incubated at 35° C. before being read again after 24 hours. Two different readings were made at each time point:
of the fluorescence (excitation at 365 nm and emission at 440 nm), using a Biolite F1 2001 fluorometer (Labtech International Limited), for wells containing 7-nitrocoumarin-3-carboxylic acid.

On to `O=C(O)c1cc2ccc([N+](=O)[O-])cc2oc1=O` [7-nitrocoumarin-3-carboxylic acid], for which the Fluorescence reading reads like this: (dilution 10^−3) 16246; (dilution 10^−4) 44910; (dilution 10^−5) 13185; (dilution 10^−6) 44865; (dilution 10^−7) 9251; (dilution 10^−8) 8137. Besides, the Fluorescence reading reads like this: (dilution 10^−9) 44425; (dilution 10^−10) 1663; (dilution 10^−11) 1651; (dilution 10^−12) 1691; (dilution 10^−13) 1682.
